Measured values taken from patent publication US12331046B2, “CTPS1 inhibitors and uses thereof” (Nimbus Clotho, Inc., priority 2020, dated 2025).
pIC50: −log10 of the molar value. One block for each molecule: values may come before it.

Biological target: human CTPS1 (Homo sapiens (Human), UniProt P17812)
Test: hCTPS1 biochemical assay (ADP-Glo)
Conditions: hCTPS1 25 nM, ATP 120 uM, UTP 160 uM, GTP 60 uM, L-Glutamine 100 uM, 25 degrees C

human CTPS1, sequence (P17812 whole entry): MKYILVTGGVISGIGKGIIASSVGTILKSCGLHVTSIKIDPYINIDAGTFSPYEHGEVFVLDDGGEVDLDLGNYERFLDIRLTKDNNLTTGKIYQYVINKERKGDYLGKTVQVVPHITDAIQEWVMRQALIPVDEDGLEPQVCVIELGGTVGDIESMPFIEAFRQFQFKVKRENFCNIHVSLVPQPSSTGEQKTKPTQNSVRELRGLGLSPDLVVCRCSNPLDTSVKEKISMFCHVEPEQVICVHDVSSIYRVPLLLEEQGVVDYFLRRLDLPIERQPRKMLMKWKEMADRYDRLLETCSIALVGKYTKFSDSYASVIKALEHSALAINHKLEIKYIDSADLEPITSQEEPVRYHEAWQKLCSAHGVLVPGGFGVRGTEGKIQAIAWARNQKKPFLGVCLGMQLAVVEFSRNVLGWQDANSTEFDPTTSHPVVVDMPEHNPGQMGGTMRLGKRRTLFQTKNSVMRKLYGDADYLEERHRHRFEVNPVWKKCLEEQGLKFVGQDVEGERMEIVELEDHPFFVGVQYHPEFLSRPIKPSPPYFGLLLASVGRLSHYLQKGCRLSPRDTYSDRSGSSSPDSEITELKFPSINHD

pIC50: > 7.00
Structure (SMILES): O=C(NCc1cc(NS(=O)(=O)C2CC2)ccn1)c1ncc(-c2cncc(C(F)(F)F)n2)s1 [I-253]

pIC50: > 7.00
Structure (SMILES): CCOc1cncc(-c2cnc(C(=O)N[C@@H](CCN3CCCCC3)c3cc(NS(=O)(=O)C4CC4)ccn3)s2)n1 [I-161, (S)—N-(1-(4-(cyclopropanesulfonamido)pyridin-2-yl)-3-(piperidin-1-yl)propyl)-5-(6-ethoxypyrazin-2-yl)thiazole-2-carboxamide]

pIC50: 6.00 to 7.00
Structure (SMILES): CCOc1cncc(-c2cnc(C(=O)N3CCN(C)CC3c3cc(NS(=O)(=O)C4CC4)ccn3)s2)n1 (stereo not shown) [I-218, N-(2-(1-(5-(6-ethoxypyrazin-2-yl)thiazole-2-carbonyl)-4-methylpiperazin-2-yl)pyridin-4-yl)cyclopropanesulfonamide]

pIC50: > 7.00
Structure (SMILES): CCOc1cncc(-c2cnc(C(=O)NC(CCN3CCOCC3)c3cc(NS(=O)(=O)C4CC4)ccn3)s2)n1 (stereo not shown) [I-179, N-(1-(4-(cyclopropanesulfonamido)pyridin-2-yl)-3-morpholinopropyl)-5-(6-ethoxypyrazin-2-yl)thiazole-2-carboxamide]

pIC50: > 7.00
Structure (SMILES): CCOc1cncc(-n2cnc(C(=O)N3CCC[C@H]3c3ccnc(NS(=O)(=O)C4CC4)n3)c2)n1 [I-276, N-[4-[(2S)-1-[1-(6-ethoxypyrazin-2-yl)imidazole-4-carbonyl]pyrrolidin-2-yl]pyrimidin-2-yl]cyclopropanesulfonamide]

pIC50: > 7.00
Structure (SMILES): CCOc1cncc(-c2cnc(C(=O)N[C@H](C[C@H]3CCCCN3)c3cc(NS(=O)(=O)C4CC4)ccn3)s2)n1 [I-172, N—((R)-1-(4-(cyclopropanesulfonamido)pyridin-2-yl)-2-((R)-piperidin-2-yl)ethyl)-5-(6-ethoxypyrazin-2-yl)thiazole-2-carboxamide]

pIC50: > 7.00
Structure (SMILES): CCOc1cncc(-c2cnc(C(=O)NCc3c(F)ccc(NS(=O)(=O)C4CC4)c3F)s2)n1 [I-248, N-[(3-cyclopropanesulfonamido-2,6-difluorophenyl)methyl]-5-(6-ethoxypyrazin-2-yl)-1,3-thiazole-2-carboxamide]

pIC50: > 7.00
Structure (SMILES): O=C(NCc1cc(NS(=O)(=O)C2CC2)ccn1)c1ncc(-c2cnn3ccc(Cl)cc23)s1 [I-197]

pIC50: > 7.00
Structure (SMILES): CCOc1cncc(-c2cnc(C(=O)NC(CCOC)c3cc(NS(=O)(=O)C4CC4)ccn3)s2)n1 (stereo not shown) [I-186]

pIC50: > 7.00
Structure (SMILES): CCOc1cncc(-c2cnc(C(=O)NC(CCN3CCCC3)c3cc(NS(=O)(=O)C4CC4)ccn3)s2)n1 (stereo not shown) [I-175, N-(1-(4-(cyclopropanesulfonamido)pyridin-2-yl)-3-(pyrrolidin-1-yl)propyl)-5-(6-ethoxypyrazin-2-yl)thiazole-2-carboxamide]

pIC50: > 7.00
Structure (SMILES): CCOc1cncc(-c2cnc(C(=O)N[C@@](C)(CCOC)c3cc(NS(=O)(=O)C4CC4)ccn3)s2)n1 [I-163, (S)—N-(2-(4-(cyclopropanesulfonamido)pyridin-2-yl)-4-methoxybutan-2-yl)-5-(6-ethoxypyrazin-2-yl)thiazole-2-carboxamide]

pIC50: > 7.00
Structure (SMILES): CCOc1cncc(-c2ccc(C(=O)NC3(c4cccc(NS(=O)(=O)C(F)F)c4)CC3)cc2)n1 [I-266, N-(1-(3-((difluoromethyl)sulfonamido)phenyl)cyclopropyl)-4-(6-ethoxypyrazin-2-yl)benzamide]

pIC50: 6.00 to 7.00
Structure (SMILES): O=C(NCc1cc(NS(=O)(=O)C2CC2)ccn1)c1ncc(-c2cnn3cc(Cl)ccc23)s1 [I-202]

pIC50: ≤ 6.00
Structure (SMILES): CCOc1cncc(-c2cccc(C(=O)NCc3cccc(NS(=O)(=O)C(F)F)c3)c2)n1 [I-280, N-[[3-(difluoromethanesulfonamido)phenyl]methyl]-3-(6-ethoxypyrazin-2-yl)benzamide]

pIC50: > 7.00
Structure (SMILES): CCOc1cncc(-c2cnc(C(=O)NC(CN3CCN(C)CC3)c3cc(NS(=O)(=O)C4CC4)ccn3)s2)n1 (stereo not shown) [I-207]

pIC50: > 7.00
Structure (SMILES): CCOc1cncc(-c2cnc(C(=O)N[C@@H](COC)c3cc(NS(=O)(=O)C4CC4)ccn3)s2)n1 [I-187]

pIC50: > 7.00
Structure (SMILES): CCOc1cncc(-c2cnc(C(=O)N[C@@H](CN3CCCCC3)c3cc(NS(=O)(=O)C4CC4)ccn3)s2)n1 (single isomer, unassigned) [I-214]

pIC50: > 7.00
Structure (SMILES): CCOc1cncc(-c2ccc(C(=O)N3CCC[C@H]3c3ccnc(NS(=O)(=O)C4CC4)n3)c(F)c2)n1 [I-286, N-[4-[(2S)-1-[4-(6-ethoxypyrazin-2-yl)-2-fluorobenzoyl]pyrrolidin-2-yl]pyrimidin-2-yl]cyclopropanesulfonamide]

pIC50: 6.00 to 7.00
Structure (SMILES): CCOc1cncc(-c2cnc(C(=O)N3CCNCC3c3ccnc(NS(=O)(=O)C4CC4)n3)s2)n1 (stereo not shown) [I-181, N-(4-{1-[5-(6-ethoxypyrazin-2-yl)-1,3-thiazole-2-carbonyl]piperazin-2-yl}pyrimidin-2-yl)cyclopropanesulfonamide]

pIC50: > 7.00
Structure (SMILES): CCOc1cncc(-c2cnc(C(=O)N[C@H](CN3CC(F)C3)c3cc(NS(=O)(=O)C4CC4)ccn3)s2)n1 (single isomer, unassigned) [I-204]

The remaining lines, values behind:

Structure (SMILES): CCOc1cncc(-c2ccc(C(=O)NCc3ccnc(NS(=O)(=O)N4CCC4)n3)nc2)n1 [I-82, N-((2-(azetidine-1-sulfonamido)pyrimidin-4-yl)methyl)-5-(6-ethoxypyrazin-2-yl)picolinamide]
pIC50: ≤ 6.00

Structure (SMILES): CCOc1cncc(-c2ccc(C(=O)N3CCC[C@@H]3c3cc(NS(=O)(=O)C4CC4)ccn3)nc2)n1 [I-80, N-[2-[(2R)-1-[5-(6-ethoxypyrazin-2-yl)pyridine-2-carbonyl]pyrrolidin-2-yl]pyridin-4-yl]cyclopropanesulfonamide]
pIC50: ≤ 6.00

Structure (SMILES): CCOc1cncc(-c2cnc(C(=O)N[C@H](CC3CCN(C)CC3)c3cc(NS(=O)(=O)C4CC4)ccn3)s2)n1 [I-100, (R)—N-(1-(4-(cyclopropanesulfonamido)pyridin-2-yl)-2-(1-methylpiperidin-4-yl)ethyl)-5-(6-ethoxypyrazin-2-yl)thiazole-2-carboxamide]
pIC50: > 7.00

Structure (SMILES): CCOc1cncc(-c2ccc(C(=O)N3CCCC3c3ccnc(NS(=O)(=O)C4CC4)n3)nc2)n1 (stereo in doubt) [I-34, N-[4-[(2S)-1-[5-(6-ethoxypyrazin-2-yl)pyridine-2-carbonyl]pyrrolidin-2-yl]pyrimidin-2-yl]cyclopropanesulfonamide]
pIC50: > 7.00

Structure (SMILES): CCOc1cncc(N2CCN(C(=O)NCc3cc(NS(=O)(=O)C4CC4)ccn3)CC2)n1 [I-27]
pIC50: 6.00 to 7.00

Structure (SMILES): CCOc1cncc(-c2cnc(C(=O)NCc3cc(NS(=O)(=O)C4CC4)ccn3)o2)n1 [I-56, N-((4-(cyclopropanesulfonamido)pyridin-2-yl)methyl)-5-(6-ethoxypyrazin-2-yl)oxazole-2-carboxamide]
pIC50: ≤ 6.00

Structure (SMILES): CCOc1cncc(-c2cnc(C(=O)NC(CN3[C@H](C)COC[C@@H]3C)c3cc(NS(=O)(=O)C4CC4)ccn3)s2)n1 (stereo partly shown) [I-111]
pIC50: > 7.00

Structure (SMILES): CCOc1cncc(-c2ccc(C(=O)NCc3cccc(NS(=O)(=O)C(F)F)c3)cc2)n1 [I-49]
pIC50: > 7.00

Structure (SMILES): CCOc1cncc(-c2cnc(C(=O)N[C@H](CN3[C@H](C)COC[C@@H]3C)c3cc(NS(=O)(=O)C4CC4)ccn3)s2)n1 (single isomer, unassigned) [I-110]
pIC50: > 7.00

Structure (SMILES): O=C(NCc1cc(NS(=O)(=O)C2CC2)ccn1)c1ncc(-c2cncc3c(Cl)cnn23)s1 [I-154]
pIC50: > 7.00

Structure (SMILES): CCOc1cncc(-c2ccc(NC(=O)C(C)(C)n3ccc(NS(=O)(=O)C4CC4)n3)nc2)n1 [I-19, 2-(3-(cyclopropanesulfonamido)-1H-pyrazol-1-yl)-N-(5-(6-ethoxypyrazin-2-yl)pyridin-2-yl)-2-methylpropanamide]
pIC50: 6.00 to 7.00

Structure (SMILES): O=C(NC1(c2csc(NS(=O)(=O)C3CC3)n2)CC1)c1ccc2ccccc2n1 [I-2, N-(1-(2-(cyclopropanesulfonamido)thiazol-4-yl)cyclopropyl)quinoline-2-carboxamide]
pIC50: ≤ 6.00

Structure (SMILES): CCC[C@@H]1CCN1c1ncc(C(=O)NCc2cc(NS(=O)(=O)C3CC3)ccn2)nc1C [I-60, (R)—N-((4-(cyclopropanesulfonamido)pyridin-2-yl)methyl)-6-methyl-5-(2-propylazetidin-1-yl)pyrazine-2-carboxamide]
pIC50: ≤ 6.00

Structure (SMILES): CCOc1cncc(-c2ccc(C(=O)NCc3cc(NS(=O)(=O)CC(F)(F)F)ccn3)cc2)n1 [I-65, 4-(6-ethoxypyrazin-2-yl)-N-((4-((2,2,2-trifluoroethyl)sulfonamido)pyridin-2-yl)methyl)benzamide]
pIC50: > 7.00

Structure (SMILES): CCOc1cncc(-c2ccc3c(c2)CN(Cc2cc(NS(=O)(=O)C4CC4)ccn2)C3=O)n1 [I-43, N-(2-((5-(6-ethoxypyrazin-2-yl)-1-oxoisoindolin-2-yl)methyl)pyridin-4-yl)cyclopropanesulfonamide]
pIC50: 6.00 to 7.00

Structure (SMILES): O=C(NCc1cc(NS(=O)(=O)C2CC2)ccn1)c1ccc(-c2cncc(N3CCCC3)n2)cc1 [I-42]
pIC50: 6.00 to 7.00

Structure (SMILES): CCOc1cncc(-c2cnc(C(=O)N[C@H](CN3CCOCC3(C)C)c3cc(NS(=O)(=O)C4CC4)ccn3)s2)n1 (single isomer, unassigned) [I-117]
pIC50: > 7.00

Structure (SMILES): CO[C@H]1CCN(c2cncc(-c3ccc(C(=O)NCc4cc(NS(=O)(=O)C5CC5)ccn4)cc3)n2)C1 (stereo in doubt) [I-45]
pIC50: ≤ 6.00

Structure (SMILES): CCC[C@@H]1CCN1c1ncc(C(=O)NCc2cc(NS(=O)(=O)C3CC3)ccn2)nc1C (single isomer, unassigned) [I-58]
pIC50: 6.00 to 7.00

Structure (SMILES): CCOc1cncc(-c2cnc(C(=O)N[C@@H](CN3CCOCC3(C)C)c3cc(NS(=O)(=O)C4CC4)ccn3)s2)n1 (single isomer, unassigned) [I-116]
pIC50: > 7.00

Structure (SMILES): CCOc1cncc(-c2ncc(C(=O)N3CCC[C@@H]3c3cccc(NS(=O)(=O)C(F)F)c3)s2)n1 [I-74, N-[3-[(2R)-1-[2-(6-ethoxypyrazin-2-yl)-1,3-thiazole-5-carbonyl]pyrrolidin-2-yl]phenyl]-1,1-difluoromethanesulfonamide]
pIC50: > 7.00

Structure (SMILES): CCOc1cncc(-c2ncc(C(=O)N3CCC[C@@H]3c3cc(NS(=O)(=O)C4CC4)ccn3)s2)n1 [I-76, N-[2-[(2R)-1-[2-(6-ethoxypyrazin-2-yl)-1,3-thiazole-5-carbonyl]pyrrolidin-2-yl]pyridin-4-yl]cyclopropanesulfonamide]
pIC50: 6.00 to 7.00

Structure (SMILES): CCOc1cncc(-c2ccc(C(=O)NCc3cc(NS(=O)(=O)C4CC4)ccn3)nc2)n1 [I-16]
pIC50: > 7.00
